From ChEMBL document CHEMBL4342421, “Current scenario of tetrazole hybrids for antibacterial activity” (Eur J Med Chem, 2019)
Values after ≈ are worked out from the molar mass of the structure shown.

Legend:
Format in all cases: functional
Escherichia coli [1] = assay: Antimicrobial activity against Escherichia coli assessed as zone of inhibition at 5 mg/ml after 24 to 48 hrs by well diffusion method; conditions: read-out: IZ
Bacillus subtilis [2] = assay: Antimicrobial activity against Bacillus subtilis assessed as zone of inhibition at 5 mg/ml after 24 to 48 hrs by well diffusion method; conditions: read-out: IZ
Pseudomonas aeruginosa [3] = assay: Antimicrobial activity against Pseudomonas aeruginosa assessed as zone of inhibition at 5 mg/ml after 24 to 48 hrs by well diffusion method; conditions: read-out: IZ
Staphylococcus aureus [4] = assay: Antimicrobial activity against Staphylococcus aureus assessed as zone of inhibition at 5 mg/ml after 24 to 48 hrs by well diffusion method; conditions: read-out: IZ
Staphylococcus aureus [5] = assay: Antimicrobial activity against Staphylococcus aureus assessed as zone of inhibition at 0.001 mol/cm3
Bacillus cereus [6] = assay: Antimicrobial activity against Bacillus cereus assessed as zone of inhibition at 0.001 mol/cm3
Escherichia coli [7] = assay: Antimicrobial activity against Escherichia coli assessed as zone of inhibition at 0.001 mol/cm3
Aspergillus flavus [8] = assay: Antifungal activity against Aspergillus flavus NCIM 524 after 3 to 4 days
Klebsiella pneumoniae [9] = assay: Antimicrobial activity against Klebsiella pneumoniae after 24 hrs by agar disk diffusion method
Klebsiella pneumoniae [10] = assay: Antimicrobial activity against Klebsiella pneumoniae after 24 hrs by disc diffusion method
Escherichia coli [11] = assay: Antimicrobial activity against Escherichia coli after 24 hrs by agar disk diffusion method
Pseudomonas aeruginosa [12] = assay: Antimicrobial activity against Pseudomonas aeruginosa ATCC 27853 after 24 hrs by disc diffusion method; conditions: ATCC 27853, 24 h
Escherichia coli [13] = assay: Antimicrobial activity against Escherichia coli ATCC 25922 after 24 hrs by disc diffusion method; conditions: ATCC 25922, 24 h
Staphylococcus aureus [14] = assay: Antimicrobial activity against Staphylococcus aureus ATCC 25923 after 24 hrs by disc diffusion method; conditions: ATCC 25923, 24 h
[15] = tested on: Trichophyton mentagrophytes; assay: Antifungal activity against Trichophyton mentagrophytes after 3 to 4 days
Pseudomonas aeruginosa [16] = assay: Antimicrobial activity against Pseudomonas aeruginosa after 24 hrs by agar disk diffusion method
Proteus mirabilis = assay: Antimicrobial activity against Proteus mirabilis after 24 hrs by agar disk diffusion method
Talaromyces marneffei = assay: Antifungal activity against Penicillium marneffei after 3 to 4 days
Aspergillus fumigatus = assay: Antifungal activity against Aspergillus fumigatus NCIM 902 after 3 to 4 days
Bacillus cereus [17] = assay: Antimicrobial activity against Bacillus cereus
Escherichia coli [18] = assay: Antimicrobial activity against Escherichia coli
[19] = tested on: Talaromyces purpureogenus; assay: Antifungal activity against Penicillium purpurogenum
Trichothecium roseum = assay: Antifungal activity against Trichothecium roseum
Bacillus subtilis [20] = assay: Antimicrobial activity against Bacillus subtilis
Pseudomonas aeruginosa [21] = assay: Antimicrobial activity against Pseudomonas aeruginosa
Aspergillus flavus [22] = assay: Antifungal activity against Aspergillus flavus
Escherichia coli [23] = assay: Antimicrobial activity against Escherichia coli assessed as zone of inhibition at 10 ug/ml; conditions: read-out: IZ
Aspergillus niger [24] = assay: Antifungal activity against Aspergillus niger assessed as zone of inhibition at 10 ug/ml; conditions: read-out: IZ
Bacillus subtilis [25] = assay: Antimicrobial activity against Bacillus subtilis assessed as zone of inhibition at 10 ug/ml; conditions: read-out: IZ
[26] = Antifungal activity against Rhodotorula ingeniosa assessed as zone of inhibition at 10 ug/ml; conditions: Sampaiozyma ingeniosa; read-out: IZ
Candida albicans [27] = assay: Antifungal activity against Candida albicans assessed as zone of inhibition at 10 ug/ml; conditions: read-out: IZ
Escherichia coli [28] = assay: Antimicrobial activity against Escherichia coli ATCC 25922 after 48 hrs by NCCLS protocol based method; conditions: ATCC 25922, 48 h
Pseudomonas = assay: Antimicrobial activity against Pseudomonas assessed as zone of inhibition at 10 ug/ml; conditions: read-out: IZ
Bacillus subtilis [29] = assay: Antimicrobial activity against Bacillus subtilis NCIM 2250 after 48 hrs by NCCLS protocol based method; conditions: NCIM 2250, 48 h
Penicillium = assay: Antifungal activity against Penicillium assessed as zone of inhibition at 10 ug/ml; conditions: read-out: IZ
Lactococcus lactis = assay: Antimicrobial activity against Streptococcus lactis assessed as zone of inhibition at 10 ug/ml; conditions: read-out: IZ
Candida albicans [30] = assay: Antifungal activity against Candida albicans MTCC 277 after 48 hrs by NCCLS protocol based method; conditions: MTCC 277, 48 h
Aspergillus niger [31] = assay: Antifungal activity against Aspergillus niger NCIM 545 after 48 hrs by NCCLS protocol based method; conditions: NCIM 545, 48 h
Staphylococcus aureus [32] = assay: Antimicrobial activity against Staphylococcus aureus
Streptomyces = assay: Antimicrobial activity against Streptomyces assessed as zone of inhibition at 10 ug/ml; conditions: read-out: IZ

## Cc1c(-c2cc(-c3ccccc3)nc3nnnn23)cnn1-c1ccccc1
Escherichia coli [1]
  zone of inhibition at 5000 µg/mL: 13.7 to 18.6 mm
Bacillus subtilis [2]
  zone of inhibition at 5000 µg/mL: 13.7 to 18.6 mm
Pseudomonas aeruginosa [3]
  zone of inhibition at 5000 µg/mL: 13.7 to 18.6 mm
Staphylococcus aureus [4]
  zone of inhibition at 5000 µg/mL: 13.7 to 18.6 mm

## Cc1c(C(=O)c2ccccc2)sc(-n2cnnn2)c1C(=O)O
Staphylococcus aureus [5]
  inhibition zone (IZ): 17 - 24 mm
Bacillus cereus [6]
  inhibition zone (IZ): 17 - 24 mm
Escherichia coli [7]
  inhibition zone (IZ): 17 - 24 mm

## Cc1c(-c2cc(-c3ccc(-c4cc(-c5cnn(-c6ccccc6)c5C)n5nnnc5n4)cc3)nc3nnnn23)cnn1-c1ccccc1
Escherichia coli [1]
  zone of inhibition at 5000 µg/mL: 8.1 to 9.9 mm
Bacillus subtilis [2]
  zone of inhibition at 5000 µg/mL: 8.1 to 9.9 mm
Pseudomonas aeruginosa [3]
  zone of inhibition at 5000 µg/mL: 8.1 to 9.9 mm
Staphylococcus aureus [4]
  zone of inhibition at 5000 µg/mL: 8.1 to 9.9 mm

## c1ccc(Cn2nnnc2SCCCSc2nnnn2-c2ccccc2)cc1
Aspergillus flavus [8]
  MIC: 6.25 to 50 µg/mL (≈ 15.2 to 122 µM)
Klebsiella pneumoniae [9]
  MIC: 6.25 µg/mL (≈ 15.2 µM)
Klebsiella pneumoniae [10]
  MIC: 6.25 to 50 µg/mL (≈ 15.2 to 122 µM)
Escherichia coli [11]
  MIC: 6.25 µg/mL (≈ 15.2 µM)
Pseudomonas aeruginosa [12]
  MIC: 6.25 to 50 µg/mL (≈ 15.2 to 122 µM)
Escherichia coli [13]
  MIC: 6.25 to 50 µg/mL (≈ 15.2 to 122 µM)
Staphylococcus aureus [14]
  MIC: 6.25 to 50 µg/mL (≈ 15.2 to 122 µM)
[15]
  MIC: 6.25 to 50 µg/mL (≈ 15.2 to 122 µM)
Pseudomonas aeruginosa [16]
  MIC: 6.25 µg/mL (≈ 15.2 µM)
Proteus mirabilis
  MIC: 6.25 µg/mL (≈ 15.2 µM)
Talaromyces marneffei
  MIC: 6.25 to 50 µg/mL (≈ 15.2 to 122 µM)
Aspergillus fumigatus
  MIC: 6.25 to 50 µg/mL (≈ 15.2 to 122 µM)

## N=C(N)Nc1nnn(Cc2ccccc2Cn2nnc(C(=N)N)n2)n1
Bacillus cereus [17]
  MIC: 30 to 40 µg/mL (≈ 87.9 to 117 µM)
Escherichia coli [18]
  MIC: 30 to 40 µg/mL (≈ 87.9 to 117 µM)
[19]
  MIC: 30 to 40 µg/mL (≈ 87.9 to 117 µM)
Trichothecium roseum
  MIC: 30 to 40 µg/mL (≈ 87.9 to 117 µM)
Bacillus subtilis [20]
  MIC: 30 to 40 µg/mL (≈ 87.9 to 117 µM)
Pseudomonas aeruginosa [21]
  MIC: 30 to 40 µg/mL (≈ 87.9 to 117 µM)
Aspergillus flavus [22]
  MIC: 30 to 40 µg/mL (≈ 87.9 to 117 µM)

## CN[C@@H]1[C@H](O[C@H]2[C@H](O[C@H]3[C@H](O)[C@@H](O)[C@H](N=C(N)N)[C@@H](O)[C@@H]3N=C(N)N)O[C@@H](C)[C@]2(O)C=O)O[C@@H](CO)[C@H](O)[C@H]1O [STREPTOMYCIN]
Escherichia coli [23]
  zone of inhibition at 10 µg/mL: 21 to 22 mm
Escherichia coli [1]
  zone of inhibition at 5000 µg/mL: 26.9 mm
Aspergillus niger [24]
  zone of inhibition at 10 µg/mL: 21 to 22 mm
Bacillus subtilis [25]
  zone of inhibition at 10 µg/mL: 21 to 22 mm
[26]
  zone of inhibition at 10 µg/mL: 21 to 22 mm
Candida albicans [27]
  zone of inhibition at 10 µg/mL: 21 to 22 mm
Escherichia coli [18]
  MIC: 200 to 400 µg/mL (≈ 344 to 688 µM)
Escherichia coli [28]
  MIC: 10 µg/mL (≈ 17.2 µM)
Pseudomonas
  zone of inhibition at 10 µg/mL: 21 to 22 mm
Bacillus subtilis [29]
  MIC: 10 µg/mL (≈ 17.2 µM)
Penicillium
  zone of inhibition at 10 µg/mL: 21 to 22 mm
Lactococcus lactis
  zone of inhibition at 10 µg/mL: 21 to 22 mm
Candida albicans [30]
  MIC: 10 µg/mL (≈ 17.2 µM)
Pseudomonas aeruginosa [3]
  zone of inhibition at 5000 µg/mL: 20.6 mm
Bacillus subtilis [20]
  MIC: 200 to 400 µg/mL (≈ 344 to 688 µM)
Aspergillus niger [31]
  MIC: 10 µg/mL (≈ 17.2 µM)
Pseudomonas aeruginosa [21]
  MIC: 200 to 400 µg/mL (≈ 344 to 688 µM)
Staphylococcus aureus [32]
  MIC: 200 to 400 µg/mL (≈ 344 to 688 µM)
Streptomyces
  zone of inhibition at 10 µg/mL: 21 to 22 mm
